From EPA's ToxValDB 9.5 (doi:10.2903/j.efsa.2010.1822)

Experiments:
Aphidius rhopalosiphi = experiment: LR50; higher = less toxic; settings: not reported; mortality
Daphnia magna = settings: chronic/long-term; duration: 21 days; reproduction
Bibionidae = settings: chronic/long-term; duration: 28 days
Colinus virginianus = settings: acute; oral; mortality
Hypoaspis aculeifer = settings: chronic/long-term
Canidae = settings: chronic; duration: 52 weeks; oral; Dog Other; histopathology: nonneoplastic
Coturnix japonica = settings: reproduction developmental
Anas platyrhynchos = settings: short-term; oral; feed; mortality
Oncorhynchus mykiss = settings: chronic/long-term; duration: 28 days; other
Apis mellifera = settings: acute; duration: 48 hours; dermal; mortality
Lepomis macrochirus = settings: acute; duration: 96 hours; mortality

Question: With COC(=O)[N-]S(=O)(=O)c1ccc(N)cc1.[Na+] [Asulam-sodium] as the compound, how does the LR50 (Aphidius rhopalosiphi) read?
Answer: 3090 mL/ha

Question: What about the NOEC (Daphnia magna) of the same compound?
Answer: 6.4 mg/L

Question: And the NOEC (Bibionidae)?
Answer: 91.3 mg/L

Question: And the LC50 (Tagia sp.; acute, duration: 14 days, mortality)?
Answer: 1000 mg/kg

Question: What about the NOEC (Tagia sp.; chronic/long-term, duration: 56 days) of the same compound?
Answer: 181 mg/kg

Question: And the LD50 (Colinus virginianus)?
Answer: > 1830 mg/kg

Question: What about the NOEC (Hypoaspis aculeifer) of the same compound?
Answer: 4370 mg/kg

Question: And the NOAEL (Canidae)?
Answer: 100 mg/kg-day

Question: And the NOAEC (Coturnix japonica)?
Answer: 65 mg/kg-day

Question: And the NOEL (Coturnix japonica)?
Answer: 19 mg/kg-day

Question: What about the LD50 (Anas platyrhynchos) of the same compound?
Answer: > 22700 mg/kg-day

Question: What about the LD50 (Rattus norvegicus; acute, oral, mortality) of the same compound?
Answer: > 4560 mg/kg

Question: And the NOAEL (Rattus norvegicus; chronic, duration: 2 years, hematological)?
Answer: 36 mg/kg-day

Question: What about the NOEL (Rattus norvegicus; reproduction developmental, reproduction) of the same compound?
Answer: 46 mg/kg-day

Question: What about the NOEC (Oncorhynchus mykiss) of the same compound?
Answer: 119 mg/L

Question: And the LD50 (Apis mellifera)?
Answer: > 100 µg/piece

Question: What about the LC50 (Lepomis macrochirus) of the same compound?
Answer: > 91.3 µg/mL
